US20260258083A1, “T Cell Engager Masking Molecules” (AMGEN INC., priority 2023, published 2026)
Where a SMILES comes first, the peptide text is derived from it. Where no end group is shown, it is not given here. Side-chain parts run from the residue outwards. [ ]: non-standard residue; d: D form. maleimide = maleimide-thiosuccinimide linker; pGlu = O=C1CC[C@@H](C(=O)O)N1; P(Dap) = not defined here; PEG = not defined here

Experiments:
[1] = test system: anti-CD3ε paratope of a CD3ε binding domain of a TCE; test: Affinity class of the binding peptide of the masking molecule
Description: The exact value may vary with the respective TCE. However, the […]

[2] = test system: CDH3×MSLN dual targeting TCE with two CD3e binders (SEQ ID NO 255); test: TDCC assay, inhibition of cytotoxicity (Example 15); format: cell-based; conditions: same peptide concentration; PBMC E:T 10:1, 48 or 72 hours
Sequence of CDH3×MSLN dual targeting TCE with two CD3e binders (SEQ ID NO 255) (as listed by the source): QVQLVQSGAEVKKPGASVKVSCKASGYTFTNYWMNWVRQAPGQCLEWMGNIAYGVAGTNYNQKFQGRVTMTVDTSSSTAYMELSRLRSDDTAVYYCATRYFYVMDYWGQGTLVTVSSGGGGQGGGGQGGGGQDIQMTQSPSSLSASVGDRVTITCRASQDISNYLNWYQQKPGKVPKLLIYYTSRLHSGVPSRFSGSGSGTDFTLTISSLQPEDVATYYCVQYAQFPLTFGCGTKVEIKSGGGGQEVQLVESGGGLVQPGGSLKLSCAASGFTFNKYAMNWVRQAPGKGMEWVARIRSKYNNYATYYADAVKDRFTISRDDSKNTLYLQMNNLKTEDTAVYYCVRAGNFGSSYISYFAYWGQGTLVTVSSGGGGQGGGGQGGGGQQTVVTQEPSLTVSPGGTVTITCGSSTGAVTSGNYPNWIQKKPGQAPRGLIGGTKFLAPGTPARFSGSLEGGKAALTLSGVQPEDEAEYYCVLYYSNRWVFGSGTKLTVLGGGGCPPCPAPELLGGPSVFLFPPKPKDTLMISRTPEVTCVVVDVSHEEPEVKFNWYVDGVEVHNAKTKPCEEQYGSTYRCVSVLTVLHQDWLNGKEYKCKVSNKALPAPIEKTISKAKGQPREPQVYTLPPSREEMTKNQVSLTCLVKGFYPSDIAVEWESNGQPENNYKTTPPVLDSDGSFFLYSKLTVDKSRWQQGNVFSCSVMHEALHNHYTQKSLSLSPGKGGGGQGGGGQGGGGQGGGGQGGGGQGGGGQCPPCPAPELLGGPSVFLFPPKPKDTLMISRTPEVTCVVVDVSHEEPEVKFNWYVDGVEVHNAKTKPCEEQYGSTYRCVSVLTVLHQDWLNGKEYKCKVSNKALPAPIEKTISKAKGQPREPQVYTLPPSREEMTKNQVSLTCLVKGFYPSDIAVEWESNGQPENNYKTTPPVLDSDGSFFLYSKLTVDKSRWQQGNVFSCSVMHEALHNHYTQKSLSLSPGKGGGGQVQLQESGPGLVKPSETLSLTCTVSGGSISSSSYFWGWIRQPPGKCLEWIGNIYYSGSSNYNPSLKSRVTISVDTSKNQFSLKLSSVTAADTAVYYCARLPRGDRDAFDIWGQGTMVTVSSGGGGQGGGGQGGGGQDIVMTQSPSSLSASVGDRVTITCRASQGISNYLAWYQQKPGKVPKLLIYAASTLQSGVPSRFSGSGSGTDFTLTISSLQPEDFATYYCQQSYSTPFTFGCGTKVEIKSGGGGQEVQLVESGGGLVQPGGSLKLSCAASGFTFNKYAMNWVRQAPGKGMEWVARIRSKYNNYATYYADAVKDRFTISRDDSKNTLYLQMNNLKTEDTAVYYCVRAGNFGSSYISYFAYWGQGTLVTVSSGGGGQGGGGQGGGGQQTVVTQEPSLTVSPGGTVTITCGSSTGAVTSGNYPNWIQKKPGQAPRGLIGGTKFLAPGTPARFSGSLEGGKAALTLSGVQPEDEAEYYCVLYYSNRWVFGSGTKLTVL
Experimental: Example 15: TCE Masking Molecule Inhibition of Cytotoxicity and Cytokine Release of Representative CDH3×MSLN Dual Targeting TCE with Two CD3e Binders (SEQ ID NO 255)
In vitro potency of CD3e pepPEG was indirectly assessed by measuring in vitro activity of T cell engager (TCE) using T cell dependent cellular cytotoxicity (TDCC) assay. Either 100 pM or 300 pM of TCE was mixed with increasing concentrations of CD3e pepPEG before the mixture is treated to cells. Peripheral blood mononuclear cells (PBMCs) as effector cells were co-cultured with tumor target cells at an effector cell-to-target cell ratio of 10:1 in the presence of mixture of TCE and CD3e pepPEG for 48 hours or 72 hours at 37° C. Cytotoxicity of TCE was assessed by Steady-Glo (Promega) for luciferase-tagged target cells and CellTiter-Glo (Promega) for non-luciferase-tagged target cells after plates were washed to eliminate T cells. Specific cytotoxicity curves and EC50 values were derived using Prism 7.04 (GraphPad). Cytokine production was assessed in supernatants from TDCC assays using electro-chemiluminescence assays (MesoScale Discovery).

[3] = test system: FLT3×CD3 TCE (SEQ ID NO: 93); test: Association kinetics by KinExA (Table 5); format: binding; conditions: for koff: KinExA, FLT3×CD3 TCE; for fold-koff / fold-kon: relative to the parent CD3ε epitope peptide
Sequence of FLT3×CD3 TCE (SEQ ID NO: 93) (as listed by the source): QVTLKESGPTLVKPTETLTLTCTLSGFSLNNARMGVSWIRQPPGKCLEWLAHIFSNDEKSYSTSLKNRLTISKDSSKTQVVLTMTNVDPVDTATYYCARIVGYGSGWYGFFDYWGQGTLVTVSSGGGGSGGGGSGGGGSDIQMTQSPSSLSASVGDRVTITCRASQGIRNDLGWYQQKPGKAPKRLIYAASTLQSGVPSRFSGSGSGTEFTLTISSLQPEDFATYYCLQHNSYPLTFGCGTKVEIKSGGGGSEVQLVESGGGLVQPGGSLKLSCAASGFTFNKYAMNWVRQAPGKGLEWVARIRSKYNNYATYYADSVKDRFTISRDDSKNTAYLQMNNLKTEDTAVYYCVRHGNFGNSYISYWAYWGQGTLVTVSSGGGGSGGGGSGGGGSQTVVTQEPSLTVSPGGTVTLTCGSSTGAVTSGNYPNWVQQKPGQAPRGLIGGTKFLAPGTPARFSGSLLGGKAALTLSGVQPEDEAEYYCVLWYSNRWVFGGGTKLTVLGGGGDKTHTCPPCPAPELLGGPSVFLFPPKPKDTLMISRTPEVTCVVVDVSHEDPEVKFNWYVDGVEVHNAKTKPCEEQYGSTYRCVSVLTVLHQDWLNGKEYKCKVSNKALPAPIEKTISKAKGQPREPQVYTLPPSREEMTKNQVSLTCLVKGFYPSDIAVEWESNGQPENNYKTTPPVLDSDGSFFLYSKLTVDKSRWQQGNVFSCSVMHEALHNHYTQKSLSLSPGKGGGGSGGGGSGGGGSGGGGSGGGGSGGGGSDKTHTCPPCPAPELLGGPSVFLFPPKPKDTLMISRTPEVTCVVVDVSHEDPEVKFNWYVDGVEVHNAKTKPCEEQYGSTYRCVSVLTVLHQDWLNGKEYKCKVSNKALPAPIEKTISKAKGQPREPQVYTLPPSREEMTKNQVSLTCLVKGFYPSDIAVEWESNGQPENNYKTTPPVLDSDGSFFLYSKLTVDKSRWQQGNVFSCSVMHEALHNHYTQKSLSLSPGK
Experimental: (§1) • 1. Preparation of NHS-activated sepharose fast-flow beads: • 2. Fast flow sepharose suspension in 100% IPA, washed twice with milliQ H20, mild centrifugation to pool beads in between wash steps. • 3. Equilibrated in 0.15 M NaBO3, pH=8.5 buffer • 4. Added 80 mM PDEA to activate the resin for thiol exchange, 10 mins, r.t. • 5. Equilibrated resin with Hepes Buffered Saline-P (0.01 M HEPES pH 7.4, 0.15 M NaCl, 0.005% v/v Surfactant P2), pH 7.4 binding buffer • 6. Added 30 μg/mL of binding peptide, […] (SEQ ID NO; 297) or pGlu-[…] (SEQ ID NO: 300), reaction for 1 hr to functionalize resin. • 7. Quench with 10 mM L-Cys for 1 hour. • 8. Constant Binding Partner was FLT3×CD3 TCE (SEQ ID NO: 93), MW 105720, 3.2 mg/mL 31.21 uM was diluted to 333 pM and the pGlu-[…] peptide or pGlu-[…]-PEG (Pep-PEG v2) were titrated from 1 uM or 400 nM down to 2.3 pM concentrations relative to effective peptide molarity.
Association Kinetics by KinExA

[4] = test system: STEAP1×CD3e heterodimeric TCE; test: T cell dependent cellular cytotoxicity (TDCC) assay, inhibition of TCE cytotoxicity; format: cell-based; conditions: STEAP1×CD3, CLDN6×CD3 and DLL3×CD3 TCE; PBMC E:T 10:1, 48 hours
Experimental: Example 12: In Vitro Cytotoxicity and Cytokine Release Inhibition by Binding Peptides
In vitro potency of CD3e pepPEG was indirectly assessed by measuring in vitro activity of T cell engager (TCE) using T cell dependent cellular cytotoxicity (TDCC) assay. […] Cytokine production was assessed in supernatants from TDCC assays using electro-chemiluminescence assays (MesoScale Discovery).

[5] = Mouse pharmacokinetic study, IV (Example 2); conditions: BL/6, mouse, plasma, iv, 1 mg/kg
Experimental: Example 2: Mouse Pharmacokinetic Study to Evaluate In Vivo PK
The 4-arm 20 kDa PepPOL conjugate was dosed by IV administration to BL/6 mice at 0.82 or 8.2 mg/kg dose levels. […] The PK profiles for each peptide were evaluated by quantifying plasma concentrations of total intact peptide material over time (see methods).

[6] = target: FLT3×CD3 TCE (SEQ ID NO: 93); test: Equilibrium binding affinity measurement by KinExA (Table 5); conditions: for Kd: KinExA, FLT3×CD3 TCE as constant binding partner; for fold-Kd: affinity gain relative to the parent CD3ε epitope peptide
Experimental: Equilibrium Binding Affinity Measurement by KinExA
as §1

[7] = test system: Steap 1xCD3 TCE SEQ ID NO 373 + 374 + 375; test: SPR assay of immobilized peptides binding with TCE; conditions: immobilized peptide, Kinetic 1:1 Binding
Sequence of Steap 1xCD3 TCE SEQ ID NO 373 + 374 + 375 (as listed by the source): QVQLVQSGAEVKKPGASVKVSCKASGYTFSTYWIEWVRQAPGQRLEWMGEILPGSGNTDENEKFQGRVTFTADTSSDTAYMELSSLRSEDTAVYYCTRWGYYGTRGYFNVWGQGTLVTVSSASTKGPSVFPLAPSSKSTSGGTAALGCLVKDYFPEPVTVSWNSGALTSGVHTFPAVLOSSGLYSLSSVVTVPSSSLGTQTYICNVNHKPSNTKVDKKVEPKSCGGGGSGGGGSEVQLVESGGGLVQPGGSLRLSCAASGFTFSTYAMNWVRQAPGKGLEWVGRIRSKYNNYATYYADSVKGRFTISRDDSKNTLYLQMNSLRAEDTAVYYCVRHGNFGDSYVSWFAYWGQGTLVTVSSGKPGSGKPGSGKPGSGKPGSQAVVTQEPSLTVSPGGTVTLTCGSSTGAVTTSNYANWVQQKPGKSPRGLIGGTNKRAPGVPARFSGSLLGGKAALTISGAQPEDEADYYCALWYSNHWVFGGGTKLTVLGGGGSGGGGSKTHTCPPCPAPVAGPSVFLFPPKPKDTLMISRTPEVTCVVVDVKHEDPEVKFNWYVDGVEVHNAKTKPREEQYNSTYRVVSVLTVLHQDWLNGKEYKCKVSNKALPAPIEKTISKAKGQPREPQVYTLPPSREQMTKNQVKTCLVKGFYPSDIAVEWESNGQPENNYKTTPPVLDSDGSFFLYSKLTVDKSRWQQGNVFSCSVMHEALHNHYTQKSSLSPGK
Sequence of Steap 1xCD3 TCE SEQ ID NO 373 + 374 + 375 (as listed by the source partner): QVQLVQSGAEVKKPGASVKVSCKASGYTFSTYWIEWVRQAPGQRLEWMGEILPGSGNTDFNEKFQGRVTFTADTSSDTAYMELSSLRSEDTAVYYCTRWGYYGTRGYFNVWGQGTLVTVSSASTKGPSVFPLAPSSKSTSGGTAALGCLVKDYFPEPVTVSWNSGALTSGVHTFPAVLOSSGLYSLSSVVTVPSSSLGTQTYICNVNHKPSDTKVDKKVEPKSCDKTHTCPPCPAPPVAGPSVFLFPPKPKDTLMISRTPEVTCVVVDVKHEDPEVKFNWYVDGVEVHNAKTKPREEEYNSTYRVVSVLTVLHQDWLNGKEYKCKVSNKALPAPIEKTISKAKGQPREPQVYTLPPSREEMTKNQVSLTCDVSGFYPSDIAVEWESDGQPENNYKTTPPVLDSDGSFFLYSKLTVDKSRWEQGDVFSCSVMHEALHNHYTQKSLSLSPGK
Sequence of Steap 1xCD3 TCE SEQ ID NO 373 + 374 + 375 (as listed by the source partner): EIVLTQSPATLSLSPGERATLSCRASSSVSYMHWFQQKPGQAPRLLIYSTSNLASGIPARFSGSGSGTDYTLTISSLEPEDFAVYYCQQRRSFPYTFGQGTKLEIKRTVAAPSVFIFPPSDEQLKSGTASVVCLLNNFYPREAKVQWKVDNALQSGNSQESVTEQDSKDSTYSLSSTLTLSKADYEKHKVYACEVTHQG
Experimental: (§2) Example 14: SPR Assay of Immobilized Peptides Binding with TCE
(§3) A cytiva CM5 chip was first functionalized with PDEA (2-(2pyridinyldithio)ethaneamine) under standard ((1-ethyl-3-(3-dimethylaminopropyl)carbodiimide)/(N-hydroxysuccinimide) EDC/NHS coupling conditions where the PDEA is dissolved to 20 mM and 1 M NaCl in 0.1 M sodium acetate pH 4.3. Binding peptides were dissolved to 50- or 100-ug/mL respectively in PBST, pH 6.5, and coupling times were optimized to yield the desired surface density.

[8] = test system: DLL3xCD3 TCE SEQ ID NO 104; test: SPR assay of immobilized peptides binding with TCE; conditions: immobilized peptide, Kinetic 1:1 Binding
Sequence of DLL3xCD3 TCE SEQ ID NO 104 (as listed by the source): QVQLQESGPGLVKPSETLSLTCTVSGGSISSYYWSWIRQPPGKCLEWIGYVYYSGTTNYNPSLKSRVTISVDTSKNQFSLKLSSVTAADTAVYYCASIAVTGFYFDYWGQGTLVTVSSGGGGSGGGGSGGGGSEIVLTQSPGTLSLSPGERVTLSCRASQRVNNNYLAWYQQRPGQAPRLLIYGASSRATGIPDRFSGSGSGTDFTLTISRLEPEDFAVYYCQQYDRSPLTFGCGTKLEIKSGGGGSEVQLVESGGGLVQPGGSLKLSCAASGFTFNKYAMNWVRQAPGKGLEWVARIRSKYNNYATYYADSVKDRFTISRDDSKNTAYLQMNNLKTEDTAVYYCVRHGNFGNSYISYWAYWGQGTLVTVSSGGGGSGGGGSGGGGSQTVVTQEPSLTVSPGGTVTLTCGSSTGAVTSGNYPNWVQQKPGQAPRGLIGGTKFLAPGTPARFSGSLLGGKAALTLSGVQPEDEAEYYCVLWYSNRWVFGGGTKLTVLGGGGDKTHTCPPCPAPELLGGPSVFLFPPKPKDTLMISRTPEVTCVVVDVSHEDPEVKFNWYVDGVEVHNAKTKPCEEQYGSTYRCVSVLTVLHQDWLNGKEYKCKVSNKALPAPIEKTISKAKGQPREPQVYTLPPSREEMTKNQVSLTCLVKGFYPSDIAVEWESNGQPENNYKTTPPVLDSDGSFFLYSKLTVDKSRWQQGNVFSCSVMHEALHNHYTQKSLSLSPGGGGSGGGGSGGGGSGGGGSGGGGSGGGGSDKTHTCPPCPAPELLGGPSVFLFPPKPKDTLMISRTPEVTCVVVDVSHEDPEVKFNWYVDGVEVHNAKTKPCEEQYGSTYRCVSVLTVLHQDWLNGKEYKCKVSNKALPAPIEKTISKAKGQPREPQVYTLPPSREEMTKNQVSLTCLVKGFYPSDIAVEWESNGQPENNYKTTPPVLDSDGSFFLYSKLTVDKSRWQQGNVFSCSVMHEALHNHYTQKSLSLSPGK
Experimental: as §2, §3

[9] = test system: FLT3xCD3 TCE SEQ ID NO 93; test: SPR assay of immobilized peptides binding with TCE; conditions: immobilized peptide, Kinetic 1:1 Binding
Experimental: as §2, §3

[10] = test system: CDH3-CD3-MSLN-CD3 TCE (SEQ ID NO 255); test: SPR assay of immobilized peptides binding with TCE; conditions: bivalent analyte model
Experimental: as §2, §3

[11] = test system: CLDN6xCD3 TCE SEQ ID NO 340; test: SPR assay of immobilized peptides binding with TCE; conditions: immobilized peptide, Kinetic 1:1 Binding
Experimental: as §2, §3

[12] = masking molecules tested with respect to TCE of SEQ ID NO 255 (Table 20)
[13] = masking molecules of Example 12

pE-DGEEELKGC (PEG)-NH2 [79676-1] ([pGlu]DGEEELKGC(PEG)-NH2; not fully specified; printed as pE-DGEEELKGC (PEG)-NH2; reading uncertain; also: PEG type and size not given here)
Affinity [1, 12]: Intermediote | inhibition of cytotoxicity, in vitro potency (FIG. 20) [2]: comparable results among each other

QDGNEEMGKQDGNEEMG
koff [3]: 0.00497 s⁻¹

pE-DGNEELKGK (PEG)-OH ([pGlu]DGNEELKGK-OH; not fully specified (residue 10); printed as pE-DGNEELKGK (PEG)-OH) [73135-2]
Affinity [1, 13]: High (an affinity indicated as Kd of about 0.05 to about 10 nM, typically 0.1 pM to 10 nM or 500 pM to 5 nM is considered of “high” affinity) | Affinity [1, 12]: High (an affinity indicated as Kd of about 0.05 to about 10 nM, typically 0.1 pM to 10 nM or 500 pM to 5 nM is considered of “high” affinity)

pE-DGEEELKGK (PEG)-OH ([pGlu]DGEEELKGK(PEG 20 kDa)-OH; not fully specified) [79921-1]
Affinity [1, 12]: Intermediate (an affinity of about 10 to 150, preferably 10 to 100 mM is considered of “high” affinity)

pE-DGNEELKGK (mPEG)-OH ([pGlu]DGNEELKGK([acetamide‑thioether-mPEG 20 kDa])-OH) [73136-2]
Affinity [1, 13]: High (an affinity indicated as Kd of about 0.05 to about 10 nM, typically 0.1 pM to 10 nM or 500 pM to 5 nM is considered of “high” affinity) | Affinity [1, 12]: High (an affinity indicated as Kd of about 0.05 to about 10 nM, typically 0.1 pM to 10 nM or 500 pM to 5 nM is considered of “high” affinity) | inhibition of cytotoxicity, in vitro potency (FIG. 20) [2]: comparable results among each other

pE-DGNEELKGC (PEG)-NH2 [79675-1] ([pGlu]DGNEELKGC-NH2; also: PEG attached, size and site not given here in name)
Affinity [1, 13]: High (an affinity indicated as Kd of about 0.05 to about 10 nM, typically 0.1 pM to 10 nM or 500 pM to 5 nM is considered of “high” affinity) | Affinity [1, 12]: High (an affinity indicated as Kd of about 0.05 to about 10 nM, typically 0.1 pM to 10 nM or 500 pM to 5 nM is considered of “high” affinity) | inhibition activity against TCE cytotoxicity (FIG. 15) [4]: highest inhibition activity

CSCC[C@H](NC(=O)CNC(=O)[C@H](CCCCN)NC(=O)CNC(=O)[C@H](CCSC)NC(=O)[C@H](CCC(=O)O)NC(=O)[C@H](CCC(=O)O)NC(=O)[C@H](CC(N)=O)NC(=O)CNC(=O)[C@H](CC(=O)O)NC(=O)[C@@H](N)CCC(N)=O)C(=O)N[C@@H](CCC(=O)O)C(=O)N[C@@H](CCC(=O)O)C(=O)N[C@@H](CC(N)=O)C(=O)NCC(=O)N[C@@H](CC(=O)O)C(=O)N[C@@H](CCC(N)=O)C(=O)O (H-QDGNEEMGKGMEENGDQ-OH)
half-life [5]: 3 to 10 min

QDGNEEMGK
koff [3]: 0.0179 s⁻¹

pE-DGEEELKGK (mPEG)-OH ([pGlu]DGEEELKGK(mPEG)-OH; numbers in words are those of the source; also: Lys side chain linked via thioether to 20 kDa mPEG) [82138-1]
Affinity [1, 12]: Intermediate (an affinity of about 10 to 150, preferably 10 to 100 mM is considered of “high” affinity)

(QDGNEEMG)3K
koff [3]: 0.00016 s⁻¹

CSCC[C@H](NC(=O)CNC(=O)[C@H](CCCCN)NC(=O)CNC(=O)[C@H](CCSC)NC(=O)[C@H](CCC(=O)O)NC(=O)[C@H](CCC(=O)O)NC(=O)[C@H](CC(N)=O)NC(=O)CNC(=O)[C@H](CC(=O)O)NC(=O)[C@@H](N)CCC(N)=O)C(=O)N[C@@H](CCC(=O)O)C(=O)N[C@@H](CCC(=O)O)C(=O)N[C@@H](CC(N)=O)C(=O)NCC(=O)N[C@@H](CC(=O)O)C(=O)N[C@@H](CCC(N)=O)C(=O)N[C@@H](CS)C(=O)O (H-QDGNEEMGKGMEENGDQC-OH; N-terminus and C-terminus assumed)
half-life [5]: 3 to 10 min

QDGNEEMGGMEENGDQ
koff [3]: 0.00471 s⁻¹

QDGNEEMG-K(Nϵ)-GMEENGDQ (chain 1 QDGNEEMGK; also: branched: chains joined through a Lys, chain 2 on Lys Nε, direction not given here)
koff [3]: 0.00447 s⁻¹ | fold-koff [3]: 0.25 | fold-kon [3]: 5.38 | Kd [6]: 1.03 nM | fold-Kd [6]: 21.65

QDGNEEMGQDGNEEMG
koff [3]: 0.00586 s⁻¹

pGlu-DGNEELKGC ([pGlu]DGNEELKGC; also: entry DGNEELKGC marks its position 1 as pyroglutamic acid)
ka [7]: 2e+06 M⁻¹ s⁻¹ | kd [7]: 0.00514 s⁻¹ | ka [8]: 2.14e+06 M⁻¹ s⁻¹ | kd [8]: 0.00279 s⁻¹ | ka [9]: 1.88e+06 M⁻¹ s⁻¹ | kd [9]: 0.0024 s⁻¹ | fast component for the off-rate [10]: 0.0212 s⁻¹ | fast component of the on-rate [10]: 2.42e+06 M⁻¹ s⁻¹ | ka [11]: 2.72e+06 M⁻¹ s⁻¹ | kd [11]: 0.0038 s⁻¹

pE-DGNEELKGC (PEG)-OH (N-terminal pyroglutamate, 20K PEG on Cys) [71203-2]
Affinity [1, 13]: High (an affinity indicated as Kd of about 0.05 to about 10 nM, typically 0.1 pM to 10 nM or 500 pM to 5 nM is considered of “high” affinity) | Affinity [1, 12]: High (an affinity indicated as Kd of about 0.05 to about 10 nM, typically 0.1 pM to 10 nM or 500 pM to 5 nM is considered of “high” affinity)

QDGNEEMG [reference compound]
koff [3]: 0.0248 s⁻¹

pE-DGEEELKGC (PEG)-NH2 [79677-1] ([pGlu]DGEEELKGC([maleimide-4‑arm PEG 5 kDa])-NH2; also: 4-arm PEG conjugate, number of peptide copies not given here)
Affinity [1, 12]: Intermediate (an affinity of about 10 to 150, preferably 10 to 100 mM is considered of “high” affinity) | inhibition of cytotoxicity, in vitro potency (FIG. 20) [2]: comparable results among each other

QDGNEEMG-P(Dap)-GMEENGDQ (chain 1 QDGNEEMG-{P(Dap)}; reading uncertain; also: chains linked via Dap residue 'P(Dap)')
koff [3]: 0.0075 s⁻¹ | fold-koff [3]: 0.30 | fold-kon [3]: 6.36 | Kd [6]: 1.1 nM | fold-Kd [6]: 32.55
